Experimental data: patent US20250228832A1, “METHODS FOR TREATING DISORDERS AMELIORATED BY MUSCARINIC RECEPTOR ACTIVATION” (KARUNA THERAPEUTICS, INC., priority 2022, published 2025)
Where two headings read alike, the source gives them in different places.

Assays:
human M5 receptor = target: T1, human M5 receptor (Homo sapiens, UniProt P08912); test: HTRF IP-One curve shift assay, M5; format: cell-based
T1 construct: expressed in transfected cells
T1 sequence (P08912 1-532): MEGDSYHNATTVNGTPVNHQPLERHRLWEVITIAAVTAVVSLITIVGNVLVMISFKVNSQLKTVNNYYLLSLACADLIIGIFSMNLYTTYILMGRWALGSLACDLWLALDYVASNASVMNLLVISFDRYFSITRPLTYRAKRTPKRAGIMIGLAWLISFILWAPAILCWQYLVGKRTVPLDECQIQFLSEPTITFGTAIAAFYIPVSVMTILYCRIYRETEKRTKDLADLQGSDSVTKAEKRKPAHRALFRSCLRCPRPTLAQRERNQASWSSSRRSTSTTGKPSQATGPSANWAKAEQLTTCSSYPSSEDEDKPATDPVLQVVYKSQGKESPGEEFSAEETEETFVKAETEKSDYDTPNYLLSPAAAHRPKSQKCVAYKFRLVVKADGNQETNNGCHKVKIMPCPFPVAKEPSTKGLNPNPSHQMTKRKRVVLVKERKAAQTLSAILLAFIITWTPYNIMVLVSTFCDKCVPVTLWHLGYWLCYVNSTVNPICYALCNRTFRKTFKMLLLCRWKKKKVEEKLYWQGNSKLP
Procedure: (§1) HTRF IP-One assays were performed using frozen cell aliquots prepared from CHO-K1 cell lines stably expressing human M1, M3, or M5 receptors. Cells were frozen following typical cell freezing protocols. […] Dissociated cells were quenched in full media and collected by centrifugation at 290×g for 5 min. […] 1 mL aliquots of cells were dispensed into cryovial tubes and frozen in a controlled rate cryo-freezer container at −80° C. Cells were stored at −80° C. (or in liquid nitrogen if stored for at least six months) until the day of the assay.
(§2) On the day before the assay, frozen cells were rapidly thawed in a 37° C. water bath, brought up in 20 mL of full media, and collected via centrifugation at 290×g for 5 min. […] Next, […] of cells (10,000 cells/well) were dispensed into 384-well coming plates in triplicate. Cells were incubated overnight in a 37° C., 5% CO2 cell incubator.
(§3) Then, 2 μL of test compounds were added to the cells and incubated for 10 min at 37° C. in a 5% CO2 cell incubator. Next, 2 μL of diluted agonists serially diluted in assay buffer at 7× final assay concentration was added to assay plates. Finally, assay plates were incubated for two hours at 37° C. in a 5% CO2 cell incubator.
(§4) Six μL of IP-1 detection reagents (IP-One Gq HTRF kit, Cisbio Cat #62IPAPEJ) were dispensed to the cells. First, the plates were incubated for two hours at room temperature (IP-One detection reagents were made according to Cisbio protocol). Then, plates were read on an Envision plate reader following the Cisbio guidelines.
(§5) Raw data for all assays was transmitted directly from plate readers into the Beacon database for processing. All assay plates contained positive and negative control wells for data normalization and scaling. […] All control wells contained DMSO at a final assay concentration that matched the test compound wells.
(§6) Counts from the standard curve wells were used to generate a sigmoidal standard curve, which was used to transform the raw counts from each well on the plate (scaling control wells and compound wells) into a pmol/well IP1 value.

human M3 receptor = target: T2, human M3 receptor (Homo sapiens, UniProt P20309); test: HTRF IP-One curve shift assay, M3; format: cell-based
T2 construct: expressed in transfected cells
T2 sequence (P20309 whole entry): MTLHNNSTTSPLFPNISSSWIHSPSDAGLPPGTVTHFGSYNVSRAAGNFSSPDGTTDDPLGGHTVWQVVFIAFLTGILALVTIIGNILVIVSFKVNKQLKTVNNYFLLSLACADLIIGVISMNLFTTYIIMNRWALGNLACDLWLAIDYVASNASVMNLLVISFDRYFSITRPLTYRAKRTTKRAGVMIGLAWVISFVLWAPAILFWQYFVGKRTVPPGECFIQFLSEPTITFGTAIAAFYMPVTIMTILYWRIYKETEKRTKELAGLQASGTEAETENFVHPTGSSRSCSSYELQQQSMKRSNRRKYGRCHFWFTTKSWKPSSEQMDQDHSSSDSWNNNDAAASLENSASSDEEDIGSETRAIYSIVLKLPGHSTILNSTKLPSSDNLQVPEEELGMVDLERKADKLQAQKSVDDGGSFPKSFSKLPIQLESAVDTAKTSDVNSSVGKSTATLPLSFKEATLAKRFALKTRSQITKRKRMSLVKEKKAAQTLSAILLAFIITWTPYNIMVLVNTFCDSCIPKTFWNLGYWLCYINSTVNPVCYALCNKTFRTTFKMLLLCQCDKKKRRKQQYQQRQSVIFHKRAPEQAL
Procedure: as §1, §2, §3, §4, §5, §6

[1] = 25-75 mg TID, 75-225 mg TDD; cited from earlier work
[2] = 26-week study of Alzheimer's disease; cited from earlier work
[3] = M5, Emraclidine concentration 0 nM
[4] = M5, Emraclidine concentration 41.2 nM, read-out: Emax
[5] = M5, Emraclidine concentration 123 nM, read-out: Emax
[6] = M5, Emraclidine concentration 370 nM, read-out: Emax
[7] = M5, Emraclidine concentration 1110 nM, read-out: Emax
[8] = M5, Emraclidine concentration 3330 nM, read-out: Emax
[9] = M5, Emraclidine concentration […], read-out: Emax
[10] = M5, MK-4710 concentration 41.2 nM, read-out: Emax
[11] = M5, MK-4710 concentration 123 nM, read-out: Emax
[12] = M5, MK-4710 concentration 370 nM, read-out: Emax
[13] = M5, MK-4710 concentration 1110 nM, read-out: Emax
[14] = M5, MK-4710 concentration 3330 nM, read-out: Emax
[15] = Emraclidine concentration 41.2 nM, read-out: Emax
[16] = Emraclidine concentration 123 nM, read-out: Emax
[17] = Emraclidine concentration 370 nM
[18] = Emraclidine concentration 1110 nM, read-out: Emax
[19] = Emraclidine concentration 3330 nM, read-out: Emax
[20] = MK-4710 concentration 41.2 nM, read-out: Emax
[21] = MK-4710 concentration 123 nM, read-out: Emax
[22] = MK-4710 concentration 1110 nM, read-out: Emax
[23] = MK-4710 concentration 3330 nM, read-out: Emax

Work on `CCCCCOc1nsnc1C1=CCCCN1C` [KTX-517, 3-(1-methyl-1,4,5,6-tetrahydropyridin-2-yl)-4-(pentyloxy)-1,2,5-thiadiazole] yielded an EC50 (human M5 receptor; [3]) of 121 nM, an Emax (human M5 receptor; [3]) of 41.68% and an EC50 (human M5 receptor; M5, Emraclidine concentration 41.2 nM) of 110 nM. The Emax (human M5 receptor; [4]) was 45.4%, the EC50 (human M5 receptor; M5, Emraclidine concentration 123 nM) was 118 nM and the Emax (human M5 receptor; [5]) was 62.7%. For the same compound, the EC50 (human M5 receptor; M5, Emraclidine concentration 370 nM) was 161 nM, the Emax at […] (human M5 receptor; [6]) was 62.4% and the EC50 (human M5 receptor; M5, Emraclidine concentration 1110 nM) was 243 nM. It also gave an Emax (human M5 receptor; [7]) of 69.3%, an EC50 (human M5 receptor; M5, Emraclidine concentration 3330 nM) of 153 nM and an Emax (human M5 receptor; [8]) of 72%. For the same compound, the EC50 (human M5 receptor; M5, Emraclidine concentration […]) was 111 nM, the Emax at […] (human M5 receptor; [9]) was 44.1% and the “α (cooperativity, affinity shift)” value (human M5 receptor; M5, M4 PAM Emraclidine) was 1.0. The “β (cooperativity, efficacy shift)” value (human M5 receptor; M5, M4 PAM Emraclidine) was 4.5, the “τ (agonist pharmacology)” value (human M5 receptor; M5, M4 PAM Emraclidine) was 0.1 and the “α (cooperativity, affinity shift)” value (human M5 receptor; M5, M4 PAM MK-4710) was 2.2. The “β (cooperativity, efficacy shift)” value (human M5 receptor; M5, M4 PAM MK-4710) was 1.9, the “τ (agonist pharmacology)” value (human M5 receptor; M5, M4 PAM MK-4710) was 0.0 and the EC50 (human M5 receptor; M5, MK-4710 concentration 0 nM) was 168 nM. The Emax (human M5 receptor; M5, MK-4710 concentration 0 nM) was 53.95%, the Emax (human M5 receptor; [10]) was 62.5% and the Emax (human M5 receptor; [11]) was 65.7%. The Emax at […] (human M5 receptor; [12]) was 68%, the Emax (human M5 receptor; [13]) was 69.6% and the Emax (human M5 receptor; [14]) was 82.2%. The Emax at […] (human M5 receptor; M5, MK-4710 concentration […], read-out: Emax) was 54.9%, the EC50 (human M3 receptor; Emraclidine concentration 0 nM) was 24.4 nM and the Emax (human M3 receptor; Emraclidine concentration 0 nM) was 42.7%. The Emax (human M3 receptor; [15]) was 45.3%, the Emax (human M3 receptor; [16]) was 50.2% and the Emax at […] (human M3 receptor; [17]) was 52.1%. For the same compound, the Emax (human M3 receptor; [18]) was 54.8%, the Emax (human M3 receptor; [19]) was 59.6% and the Emax at […] (human M3 receptor; Emraclidine concentration […]) was 43%. For the same compound, the “α (cooperativity, affinity shift)” value (human M3 receptor; M4 PAM Emraclidine) was 1.0, the “β (cooperativity, efficacy shift)” value (human M3 receptor; M4 PAM Emraclidine) was 2.8 and the “τ (agonist pharmacology)” value (human M3 receptor; M4 PAM Emraclidine) was 0.0. The “α (cooperativity, affinity shift)” value (human M3 receptor; M4 PAM MK-4710) was 7.7, the “β (cooperativity, efficacy shift)” value (human M3 receptor; M4 PAM MK-4710) was 1.1 and the “τ (agonist pharmacology)” value (human M3 receptor; M4 PAM MK-4710) was 0.0. It also gave an EC50 (human M3 receptor; MK-4710 concentration 0 nM) of 33.8 nM, an Emax (human M3 receptor; MK-4710 concentration 0 nM) of 46.7% and an Emax (human M3 receptor; [20]) of 49.5%. The Emax (human M3 receptor; [21]) was 48.3%, the Emax at […] (human M3 receptor; MK-4710 concentration 370 nM) was 53.4% and the Emax (human M3 receptor; [22]) was 51.1%. The Emax (human M3 receptor; [23]) was 64.4% and the Emax at […] (human M3 receptor; MK-4710 concentration […]) was 45.6%.
For `CCCCCCOc1nsnc1C1=CCCN(C)C1` [xanomeline, reference compound], the Emax at […] (human M5 receptor) was 80%, the Emax (human M5 receptor; [3]) was 81.14% and the Emax (human M5 receptor; [4]) was 78.5%. It also gave an Emax (human M5 receptor; [5]) of 84.2%, an Emax at […] (human M5 receptor; [6]) of 89% and an Emax (human M5 receptor; [7]) of 81.9%. For the same compound, the Emax (human M5 receptor; [8]) was 79.5%, the Emax at […] (human M5 receptor; [9]) was 79.4% and the “τ (agonist pharmacology)” value (human M5 receptor; M5, M4 PAM Emraclidine) was 0.1. The “τ (agonist pharmacology)” value (human M5 receptor; M5, M4 PAM MK-4710) was 0.0, the Emax (human M5 receptor; M5, MK-4710 concentration 0 nM) was 77.91% and the Emax (human M5 receptor; [10]) was 87%. It also gave an Emax (human M5 receptor; [11]) of 86.9%, an Emax at […] (human M5 receptor; [12]) of 92.9% and an Emax (human M5 receptor; [13]) of 78.6%. It also gave an Emax (human M5 receptor; [14]) of 83%, an EC50 (human M3 receptor; Emraclidine concentration 0 nM) of 155 nM and an Emax (human M3 receptor; Emraclidine concentration 0 nM) of 77.3%. It also gave an Emax (human M3 receptor; [15]) of 81.9%, an Emax (human M3 receptor; [16]) of 85.7% and an Emax at […] (human M3 receptor; [17]) of 91.6%. It also gave an Emax (human M3 receptor; [18]) of 89.1%, an Emax (human M3 receptor; [19]) of 80.3% and an Emax at […] (human M3 receptor; Emraclidine concentration […]) of 74.5%. The “τ (agonist pharmacology)” value (human M3 receptor; M4 PAM Emraclidine) was 0.1, the “τ (agonist pharmacology)” value (human M3 receptor; M4 PAM MK-4710) was 0.1 and the EC50 (human M3 receptor; MK-4710 concentration 0 nM) was 147 nM. It also gave an Emax (human M3 receptor; MK-4710 concentration 0 nM) of 84.2%, an Emax (human M3 receptor; [20]) of 94.3% and an Emax (human M3 receptor; [21]) of 90.3%. The Emax at […] (human M3 receptor; MK-4710 concentration 370 nM) was 88.9%, the Emax (human M3 receptor; [22]) was 81% and the Emax (human M3 receptor; [23]) was 81.8%. For the same compound, the Emax at […] (human M3 receptor; MK-4710 concentration […]) was 81.5%, the “positive (psychosis), negative, and cognitive symptoms of schizophrenia” value [1] was “improved” and the dropout rate [2] was 56%.
